Measured values from patent US10316017B2, “COT modulators and methods of use thereof” (Gilead Sciences, Inc., priority 2015, dated 2019).
pEC50, pIC50: −log10 of the molar value.

Tests used:
[1] = system: TNFα production in LPS-stimulated human monocytes; assay: Cot Monocyte TNFα Cell Based Assay; conditions: Homo sapiens, Monocyte, LPS-stimulated human monocytes, TNFα TR-FRET; read-out: EC50 TNF
Summary of the method: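 Cells at 5,000/well were pretreated with compound for 1 h at 37 °C (0.5% DMSO final), then stimulated with 50 pg/ml LPS for 4 h at 37 °C. Supernatant TNFα was measured by two-antibody TR-FRET after overnight room-temperature incubation; values are percent of control between unstimulated and stimulated wells.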

[2] = molecular target: T1, human Cot catalytic domain (30-397 amino acids) (Homo sapiens, UniProt P41279); assay: High Throughput Cot Biochemical Assay (KinEASE TR-FRET); conditions: Cot KinEASE TR-FRET, 400 μM ATP; read-out: IC50 HTRF
T1 construct: Purified recombinant human Cot catalytic domain (30-397 amino acids) was purchased from Cama Biosciences; purchased Cama Biosciences (so in the source)
Summary of the method: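 Reaction of 5 nM recombinant human Cot catalytic domain (aa 30-397) with 1 μM STK3 peptide (XL665-labeled) and 400 μM ATP in 10 mM MOPS pH 7.0, 10 mM MgOAc, 1 mM DTT, 0.5 mg/mL BSA, 0.1% DMSO. Phosphopeptide detected by TR-FRET with europium anti-phospho antibody.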

T1 sequence (P41279 30-397): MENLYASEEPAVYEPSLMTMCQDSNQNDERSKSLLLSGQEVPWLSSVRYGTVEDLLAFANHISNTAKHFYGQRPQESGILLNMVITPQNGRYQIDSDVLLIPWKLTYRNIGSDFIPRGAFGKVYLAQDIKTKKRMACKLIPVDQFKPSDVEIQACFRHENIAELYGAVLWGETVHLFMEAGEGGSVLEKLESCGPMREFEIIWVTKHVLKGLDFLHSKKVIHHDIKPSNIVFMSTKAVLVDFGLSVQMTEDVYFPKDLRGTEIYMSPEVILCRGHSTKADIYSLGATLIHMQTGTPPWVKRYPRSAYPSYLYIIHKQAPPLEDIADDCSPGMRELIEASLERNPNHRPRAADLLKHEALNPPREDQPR

Compound | pEC50 [1] | pIC50 [2]
Cc1c(C#N)cccc1[C@H](Nc1cc(C#N)c2ncc(C#N)c(NCC(C)(C)C(F)(F)F)c2c1)c1cn(C2(C3CC3)CC2)nn1 [Example 1152, (S)-6-(((1-([1,1'-bi(cyclopropan)]-1-yl)-1H-1,2,3-triazol-4-yl)(3-cyano-2-methylphenyl)methyl)amino)-4-((3,3,3-trifluoro-2,2-dimethylpropyl)amino)quinoline-3,8-dicarbonitrile] | 7.31 | 8.52
Cc1c(-c2ccnnc2)cccc1[C@H](Nc1cc(C#N)c2ncc(C#N)c(NCC(C)(C)C)c2c1)c1cn(C2(C(F)F)CC2)nn1 [Example 1155, (S)-6-(((1-(1-(difluoromethyl)cyclopropyl)-1H-1,2,3-triazol-4-yl)(2-methyl-3-(pyridazin-4-yl)phenyl)methyl)amino)-4-(neopentylamino)quinoline-3,8-dicarbonitrile] | 7.22 | 9.00
CC(C)(C)CNc1c(C#N)cnc2c(C#N)cc(N[C@@H](c3ccccc3Cl)c3nnn(C4(C)CC4)c3F)cc12 [Example 1159, (S)-6-(((2-chlorophenyl)(5-fluoro-1-(1-methylcyclopropyl)-1H-1,2,3-triazol-4-yl)methyl)amino)-4-(neopentylamino)quinoline-3,8-dicarbonitrile] | 6.38 | 7.30
COc1c([C@@H](Nc2cc(C#N)c3ncc(C#N)c(NCC(C)(C)C)c3c2)c2ccccc2Cl)nnn1C1(C)CC1 [Example 1160, (S)-6-(((2-chlorophenyl)(5-methoxy-1-(1-methylcyclopropyl)-1H-1,2,3-triazol-4-yl)methyl)amino)-4-(neopentylamino)quinoline-3,8-dicarbonitrile] | 6.03 | 7.15
Cc1c(-c2ccn(C)n2)cccc1[C@H](Nc1cc(Cl)c2ncc(C#N)c(NCC(C)(C)C)c2c1)c1cn(C2(C(F)(F)F)CC2)nn1 [Example 1162, (S)-8-chloro-6-(((2-methyl-3-(1-methyl-1H-pyrazol-3-yl)phenyl) (1-(1-(trifluoromethyl)cyclopropyl)-1H-1,2,3-triazol-4-yl)methyl)amino)-4-(neopentylamino)quinoline-3-carbonitrile] | 6.32 | 7.80
Cc1c(-c2cc[nH]n2)cccc1[C@H](Nc1cc(Cl)c2ncc(C#N)c(NCC(C)(C)C)c2c1)c1cn(C2(C(F)(F)F)CC2)nn1 [Example 1163, (S)-8-chloro-6-(((2-methyl-3-(1H-pyrazol-3-yl)phenyl)(1-(1-(trifluoromethyl)cyclopropyl)-1H-1,2,3-triazol-4-yl)methyl)amino)-4-(neopentylamino)quinoline-3-carbonitrile] | 6.33 | 7.72
Cc1c(-c2cn[nH]c2)cccc1[C@H](Nc1cc(Cl)c2ncc(C#N)c(NCC(C)(C)C)c2c1)c1cn(C2(C(F)(F)F)CC2)nn1 [Example 1164, (S)-8-chloro-6-(((2-methyl-3-(1H-pyrazol-4-yl)phenyl) (1-(1-(trifluoromethyl)cyclopropyl)-1H-1,2,3-triazol-4-yl)methyl)amino)-4-(neopentylamino) quinoline-3-carbonitrile] | 7.18 | 7.89
Cc1c(-c2cnco2)cccc1[C@H](Nc1cc(Cl)c2ncc(C#N)c(NCC(C)(C)C)c2c1)c1cn(C2(C(F)(F)F)CC2)nn1 [Example 1165, (S)-8-chloro-6-(((2-methyl-3 (oxazol-5-yl)phenyl)(1-(1-(trifluoromethyl)cyclopropyl)-1H-1,2,3-triazol-4-yl)methyl)amino)-4-(neopentylamino)quinoline-3-carbonitrile] | 6.99 | 8.05

The next compounds have a higher pEC50 [1] than those just listed; values first:

pEC50 [1] | pIC50 [2] | Compound
7.35 | 8.40 | Cc1c(C#N)cccc1[C@H](Nc1cc(C#N)c2ncc(C#N)c(NCC(C)(C)C)c2c1)c1cn(C(CF)CF)nn1 [Example 1149, (S)-6-(((3-cyano-2-methylphenyl)(1-(1,3-difluoropropan-2-yl)-1H-1,2,3-triazol-4-yl)methyl)amino)-4-(neopentylamino)quinoline-3,8-dicarbonitrile]
7.57 | 8.70 | Cc1c(C#N)cccc1[C@H](Nc1cc(C#N)c2ncc(C#N)c(NCC(C)(C)C)c2c1)c1cn([C@@H](C)CF)nn1 [Example 1150, 6-(((S)-(3-cyano-2-methylphenyl)(1-((S)-1-fluoropropan-2-yl)-1H-1,2,3-triazol-4-yl)methyl)amino)-4-(neopentylamino)quinoline-3,8-dicarbonitrile]
7.44 | 8.70 | Cc1c(C#N)cccc1[C@H](Nc1cc(C#N)c2ncc(C#N)c(NCC(C)(C)C(F)(F)F)c2c1)c1cn(C23CC(C2)C3)nn1 [Example 1151, (S)-6-(((1-(bicyclo[1.1.1]pentan-1-yl)-1H-1,2,3-triazol-4-yl)(3-cyano-2-methylphenyl)methyl)amino)-4-((3,3,3-trifluoro-2,2-dimethylpropyl)amino) quinoline-3,8-dicarbonitrile]
7.38 | 8.70 | Cc1c(-c2cn[nH]c2)cccc1[C@H](Nc1cc(C#N)c2ncc(C#N)c(NCC(C)(C)C)c2c1)c1cn(C2(C(F)F)CC2)nn1 [Example 1153, (S)-6-(((1-(1-(difluoromethyl)cyclopropyl)-1H-1,2,3-triazol-4-yl)(2-methyl-3-(1H-pyrazol-4-yl)phenyl)methyl)amino)-4-(neopentylamino)quinoline-3,8-dicarbonitrile]
7.35 | 8.70 | Cc1c(-c2cncn2C)cccc1[C@H](Nc1cc(C#N)c2ncc(C#N)c(NCC(C)(C)C)c2c1)c1cn(C2(C(F)F)CC2)nn1 [Example 1154, (S)-6-(((1-(1-(difluoromethyl)cyclopropyl)-1H-1,2,3-triazol-4-yl)(2-methyl-3-(1-methyl-1H-imidazol-5-yl)phenyl)methyl)amino)-4-(neopentylamino)quinoline-3,8-dicarbonitrile]
7.89 | 9.00 | Cc1c(C#N)cccc1[C@H](Nc1cc(C#N)c2ncc(C#N)c(NCC(C)(C)C)c2c1)c1cn(C23CC(C2)C3)nn1 [Example 1156, (S)-6-(((1-(bicyclo[1.1.1]pentan-1-yl)-1H-1,2,3-triazol-4-yl)(3-cyano-2-methylphenyl)methyl)amino)-4-(neopentylamino)quinoline-3,8-dicarbonitrile]
7.82 | 8.52 | Cc1c(C#N)cccc1[C@H](Nc1cc(C#N)c2ncc(C#N)c(NCC(C)(C)C)c2c1)c1cn(C2(C3CC3)CC2)nn1 [Example 1157, (S)-6-(((1-([1,1'-bi(cyclopropan)]-1-yl)-1H-1,2,3-triazol-4-yl)(3-cyano-2-methylphenyl)methyl)amino)-4-(neopentylamino)quinoline-3,8-dicarbonitrile]
7.59 | 8.70 | Cc1c(-c2cnco2)cccc1[C@H](Nc1cc(C#N)c2ncc(C#N)c(NCC(C)(C)C)c2c1)c1cn(C2(C(F)F)CC2)nn1 [Example 1158, (S)-6-(((1-(1-(difluoromethyl)cyclopropyl)-1H-1,2,3-triazol-4-yl)(2-methyl-3-(oxazol-5-yl)phenyl)methyl)amino)-4-(neopentylamino)quinoline-3,8-dicarbonitrile]
7.35 | 7.85 | Cc1nnc(C2(n3cc([C@@H](Nc4cc(C#N)c5ncc(C#N)c(NCC(C)(C)C)c5c4)c4ccccc4Cl)nn3)CC2)o1 [Example 1161, (S)-6-(((2-chlorophenyl)(1-(1-(5-methyl-1,3,4-oxadiazol-2-yl)cyclopropyl)-1H-1,2,3-triazol-4-yl)methyl)amino)-4-(neopentylamino)quinoline-3,8-dicarbonitrile]
